This is an account of results in patent US20090298820A1, “3-SUBSTITUTED-1H-PYRROLO[2,3-B]PYRIDINE AND 3-SUBSTITUTED-1H-PYRROLO[3,2-B]PYRIDINE COMPOUNDS, THEIR USE AS MTOR KINASE AND PI3 KINASE INHIBITORS, AND THEIR SYNTHESES” (Wyeth, priority 2008, published 2009).

Structures are written as SMILES. pIC50: −log10 of the molar value.

Common to all, as to type: biochemical
One experiment has as its target PI3Kα (Homo sapiens, UniProt P42336). Description: PI3K-alpha fluorescence polarization assay. The conditions noted are these: read-out: PI3Kα Median IC50. A general note: Polarisation of emitted light reports the rotation of a fluorescent probe.
A further experiment has as its target PI3Kγ (Homo sapiens, UniProt P48736). Description: PI3K-gamma fluorescence polarization assay. The settings on record: read-out: PI3Kγ Median IC50.
A further experiment has as its target mTOR (Homo sapiens, UniProt P42345). Description: mTOR enzyme assay (DELFIA format, His6-S6K substrate). The settings on record: read-out: mTOR Kinase Median IC50.

Chain of PI3Kα (P42336 whole entry, species assumed): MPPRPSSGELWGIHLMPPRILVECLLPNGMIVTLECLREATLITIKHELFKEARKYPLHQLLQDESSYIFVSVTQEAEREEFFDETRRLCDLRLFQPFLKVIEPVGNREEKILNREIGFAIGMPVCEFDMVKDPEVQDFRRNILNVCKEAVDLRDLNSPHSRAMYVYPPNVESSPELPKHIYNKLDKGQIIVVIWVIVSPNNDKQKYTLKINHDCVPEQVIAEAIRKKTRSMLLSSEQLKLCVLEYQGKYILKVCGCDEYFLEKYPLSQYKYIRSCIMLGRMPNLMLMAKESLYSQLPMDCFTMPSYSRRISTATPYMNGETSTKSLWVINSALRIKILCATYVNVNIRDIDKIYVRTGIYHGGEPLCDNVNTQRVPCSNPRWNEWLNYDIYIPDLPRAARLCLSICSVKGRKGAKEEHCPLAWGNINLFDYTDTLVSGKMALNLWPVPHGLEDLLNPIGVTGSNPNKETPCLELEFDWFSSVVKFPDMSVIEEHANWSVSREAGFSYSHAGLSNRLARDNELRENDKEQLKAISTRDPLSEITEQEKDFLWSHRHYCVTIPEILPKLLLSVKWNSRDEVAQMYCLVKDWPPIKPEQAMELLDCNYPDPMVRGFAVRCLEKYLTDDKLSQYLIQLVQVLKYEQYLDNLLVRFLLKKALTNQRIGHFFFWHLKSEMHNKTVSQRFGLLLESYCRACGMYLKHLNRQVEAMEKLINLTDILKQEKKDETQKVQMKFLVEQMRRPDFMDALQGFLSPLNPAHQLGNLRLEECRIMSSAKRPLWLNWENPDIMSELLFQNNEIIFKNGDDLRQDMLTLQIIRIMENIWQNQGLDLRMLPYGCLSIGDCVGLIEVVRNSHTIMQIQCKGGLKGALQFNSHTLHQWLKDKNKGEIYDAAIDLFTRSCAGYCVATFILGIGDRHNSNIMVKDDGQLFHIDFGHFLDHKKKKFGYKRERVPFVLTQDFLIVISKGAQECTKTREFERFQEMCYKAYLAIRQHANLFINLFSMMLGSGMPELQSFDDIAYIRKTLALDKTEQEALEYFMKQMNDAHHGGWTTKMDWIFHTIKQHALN
Chain of PI3Kα (P27986 whole entry partner, species assumed): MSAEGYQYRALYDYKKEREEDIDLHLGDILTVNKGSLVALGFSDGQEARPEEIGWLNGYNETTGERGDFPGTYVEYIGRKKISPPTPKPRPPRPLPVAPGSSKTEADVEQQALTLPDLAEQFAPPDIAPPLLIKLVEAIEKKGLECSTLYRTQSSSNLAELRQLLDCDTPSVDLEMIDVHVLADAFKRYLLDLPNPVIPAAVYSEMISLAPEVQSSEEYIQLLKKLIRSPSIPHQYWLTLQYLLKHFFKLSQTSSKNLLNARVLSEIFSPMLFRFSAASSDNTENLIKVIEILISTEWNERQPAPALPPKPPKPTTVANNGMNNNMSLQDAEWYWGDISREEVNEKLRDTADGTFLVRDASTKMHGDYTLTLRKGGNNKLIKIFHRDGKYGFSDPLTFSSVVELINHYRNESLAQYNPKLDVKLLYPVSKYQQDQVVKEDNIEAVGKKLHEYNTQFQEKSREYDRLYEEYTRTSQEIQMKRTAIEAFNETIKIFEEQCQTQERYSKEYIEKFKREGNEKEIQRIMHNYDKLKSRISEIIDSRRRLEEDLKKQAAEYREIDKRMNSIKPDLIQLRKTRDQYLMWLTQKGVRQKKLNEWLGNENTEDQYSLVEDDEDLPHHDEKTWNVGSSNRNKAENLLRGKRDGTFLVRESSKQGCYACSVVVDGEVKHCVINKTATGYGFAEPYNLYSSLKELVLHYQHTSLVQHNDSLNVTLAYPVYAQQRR
Chain of PI3Kγ (P48736 whole entry, species assumed): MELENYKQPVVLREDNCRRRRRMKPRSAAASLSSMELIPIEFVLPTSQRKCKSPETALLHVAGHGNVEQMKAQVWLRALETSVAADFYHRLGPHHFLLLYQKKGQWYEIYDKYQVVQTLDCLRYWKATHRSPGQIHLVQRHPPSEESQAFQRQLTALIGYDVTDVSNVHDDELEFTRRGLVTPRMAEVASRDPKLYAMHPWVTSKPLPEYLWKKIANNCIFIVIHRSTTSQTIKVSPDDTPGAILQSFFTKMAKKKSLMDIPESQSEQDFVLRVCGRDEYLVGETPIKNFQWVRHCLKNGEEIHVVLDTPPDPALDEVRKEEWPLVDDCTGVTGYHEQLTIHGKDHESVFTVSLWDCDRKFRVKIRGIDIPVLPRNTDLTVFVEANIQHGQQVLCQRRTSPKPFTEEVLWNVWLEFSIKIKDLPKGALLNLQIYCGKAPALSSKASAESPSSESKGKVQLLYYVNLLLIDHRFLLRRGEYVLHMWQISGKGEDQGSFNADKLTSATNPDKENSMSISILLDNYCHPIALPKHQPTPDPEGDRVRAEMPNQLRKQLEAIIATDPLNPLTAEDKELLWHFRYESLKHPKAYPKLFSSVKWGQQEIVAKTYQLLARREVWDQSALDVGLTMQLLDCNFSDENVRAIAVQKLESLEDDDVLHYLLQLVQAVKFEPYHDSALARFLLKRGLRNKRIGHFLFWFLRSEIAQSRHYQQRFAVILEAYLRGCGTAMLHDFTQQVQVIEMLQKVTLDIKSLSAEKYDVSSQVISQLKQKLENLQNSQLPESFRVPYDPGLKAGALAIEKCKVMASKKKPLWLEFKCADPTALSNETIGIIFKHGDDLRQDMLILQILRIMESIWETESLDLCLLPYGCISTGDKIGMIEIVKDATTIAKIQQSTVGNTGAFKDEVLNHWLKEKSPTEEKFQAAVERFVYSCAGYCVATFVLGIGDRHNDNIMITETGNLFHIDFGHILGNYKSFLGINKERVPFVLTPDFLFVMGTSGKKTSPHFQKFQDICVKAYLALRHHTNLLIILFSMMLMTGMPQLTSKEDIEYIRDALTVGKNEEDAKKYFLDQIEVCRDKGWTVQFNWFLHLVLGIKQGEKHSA

For the compound `C#CCN(C)C(=O)C1CCN(c2ccnc3c2c(/C=C2\Oc4ccc(NC(=O)Nc5cccnc5)cc4C2=O)cn3C)CC1` [Compound 226, N-methyl-1-{1-methyl-3-[(Z)-{3-oxo-5-[(pyridin-3-ylcarbamoyl)amino]-1-benzofuran-2(3H)-ylidene}methyl]-1H-pyrrolo[2,3-b]pyridin-4-yl}-N-prop-2-yn-1-ylpiperidine-4-carboxamide], the pIC50 was 6.04 on PI3Kα, 5.94 on PI3Kγ and 7.65 on mTOR.
For the compound `CN(C(=O)C1CCN(c2ccnc3c2c(/C=C2\Oc4ccc(NC(=O)Nc5cccnc5)cc4C2=O)cn3C)CC1)C1CCCC1` [Compound 227, N-cyclopentyl-N-methyl-1-{1-methyl-3-[(Z)-{3-oxo-5-[(pyridin-3-ylcarbamoyl)amino]-1-benzofuran-2(3H)-ylidene}methyl]-1H-pyrrolo[2,3-b]pyridin-4-yl}piperidine-4-carboxamide], the values for the pIC50 on PI3Kα, at PI3Kγ and on mTOR were 5.56, 5.96 and 6.78, respectively.
For `CN1CCN(NC(=O)Nc2ccc3c(c2)C(=O)/C(=C/c2cn(C)c4nccc(N5CCC(C(=O)N(C)C)CC5)c24)O3)CC1` [Compound 228, N,N-dimethyl-1-(1-methyl-3-{(Z)-[5-{[(4-methylpiperazin-1-yl)carbamoyl]amino}-3-oxo-1-benzofuran-2(3H)-ylidene]methyl}-1H-pyrrolo[2,3-b]pyridin-4-yl)piperidine-4-carboxamide], the negative logarithm of the IC50 (pIC50) is 6.38 on PI3Kα, 5.56 at PI3Kγ and 6.77 on mTOR.
Consider `CN1CCN(c2ccc(NC(=O)Nc3ccc4c(c3)C(=O)/C(=C/c3cn(C)c5nccc(N6CC7CCC(C6)O7)c35)O4)cc2)CC1` [Compound 229, 1-[(2Z)-2-{[1-methyl-4-(8-oxa-3-azabicyclo[3.2.1]oct-3-yl)-1H-pyrrolo[2,3-b]pyridin-3-yl]methylidene}-3-oxo-2,3-dihydro-1-benzofuran-5-yl]-3-[4-(4-methylpiperazin-1-yl)phenyl]urea], for which the pIC50 on PI3Kα was 5.64; at PI3Kγ, 5.18; on mTOR it was 6.55.
Consider `CN1CCN(c2ccc(NC(=O)Nc3ccc4c(c3)C(=O)/C(=C/c3cn(C)c5nccc(N6CCC(C(=O)N(C)C)CC6)c35)O4)cn2)CC1` [Compound 230, N,N-dimethyl-1-(1-methyl-3-{(Z)-[5-({[6-(4-methylpiperazin-1-yl)pyridin-3-yl]carbamoyl}amino)-3-oxo-1-benzofuran-2(3H)-ylidene]methyl}-1H-pyrrolo[2,3-b]pyridin-4-yl)piperidine-4-carboxamide], for which the pIC50 at PI3Kα was 4.96; on PI3Kγ, less than 5.00; at mTOR it was 7.13.
Turning to `CN1CCN(c2ccc(NC(=O)Nc3ccc4c(c3)C(=O)/C(=C/c3cn(C)c5nccc(N6CC7CCC(C6)O7)c35)O4)cn2)CC1` [Compound 231, 1-[(2Z)-2-{[1-methyl-4-(8-oxa-3-azabicyclo[3.2.1]oct-3-yl)-1H-pyrrolo[2,3-b]pyridin-3-yl]methylidene}-3-oxo-2,3-dihydro-1-benzofuran-5-yl]-3-[6-(4-methylpiperazin-1-yl)pyridin-3-yl]urea], the negative-log IC50 (pIC50) on PI3Kα was 6.15; on PI3Kγ it was less than 5.00; at mTOR it was 7.50.
As for `Cn1cncc1CNC(=O)Nc1ccc2c(c1)C(=O)/C(=C/c1cn(C)c3nccc(N4CC5CCC(C4)O5)c13)O2` [Compound 232, 1-[(1-methyl-1H-imidazol-5-yl)methyl]-3-[(2Z)-2-{[1-methyl-4-(8-oxa-3-azabicyclo[3.2.1]oct-3-yl)-1H-pyrrolo[2,3-b]pyridin-3-yl]methylidene}-3-oxo-2,3-dihydro-1-benzofuran-5-yl]urea], the pIC50 on PI3Kα is 5.94; at PI3Kγ, less than 5.00; on mTOR, 6.80.
With `Cn1cc(/C=C2\Oc3ccc(NC(=O)Nc4cccnc4)cc3C2=O)c2c(N3CCC(C(=O)N4CC5CCC4CO5)CC3)ccnc21` (stereo not drawn) [Compound 233, 1-[(2Z)-2-({1-methyl-4-[4-(2-oxa-5-azabicyclo[2.2.2]oct-5-ylcarbonyl)piperidin-1-yl]-1H-pyrrolo[2,3-b]pyridin-3-yl}methylidene)-3-oxo-2,3-dihydro-1-benzofuran-5-yl]-3-pyridin-3-ylurea], the pIC50 was 6.71 on PI3Kα, 5.76 on PI3Kγ and 7.42 at mTOR.
As to `Cn1cc(/C=C2\Oc3ccc(NC(=O)Nc4cccnc4)cc3C2=O)c2c(C(=O)N3CCCCC3)ccnc21` [Compound 234, 1-[(2Z)-2-{[1-methyl-4-(piperidin-1-ylcarbonyl)-1H-pyrrolo[2,3-b]pyridin-3-yl]methylidene}-3-oxo-2,3-dihydro-1-benzofuran-5-yl]-3-pyridin-3-ylurea], the negative-log IC50 (pIC50) on PI3Kα is 6.60; on PI3Kγ it was 5.60; at mTOR it was less than 5.40.
Regarding `CC(C)NC(=O)Nc1ccc2c(c1)C(=O)/C(=C/c1cn(C)c3nccc(N4CC5CCC(C4)O5)c13)O2` [Compound 235, 1-(1-methylethyl)-3-[(2Z)-2-{[1-methyl-4-(8-oxa-3-azabicyclo[3.2.1]oct-3-yl)-1H-pyrrolo[2,3-b]pyridin-3-yl]methylidene}-3-oxo-2,3-dihydro-1-benzofuran-5-yl]urea], the figures for the pIC50 at PI3Kα, on PI3Kγ and on mTOR were 6.07, 5.59 and 7.14, respectively.
For `C[C@H]1COCCN1c1ccnc2c1c(/C=C1\Oc3ccc(NC(=O)Nc4cccnc4)cc3C1=O)cn2C` [Compound 238, 1-[(2Z)-2-({1-methyl-4-[(3S)-3-methylmorpholin-4-yl]-1H-pyrrolo[2,3-b]pyridin-3-yl}methylidene)-3-oxo-2,3-dihydro-1-benzofuran-5-yl]-3-pyridin-3-ylurea] the same measures were 6.19, 5.44 and 6.89.
Turning to `C[C@@H]1CN(C2CCN(c3ccnc4c3c(/C=C3\Oc5ccc(NC(=O)Nc6cccnc6)cc5C3=O)cn4C)CC2)C[C@H](C)O1` [Compound 239, 1-{(2Z)-2-[(4-{4-[(2R,6S)-2,6-dimethylmorpholin-4-yl]piperidin-1-yl}-1-methyl-1H-pyrrolo[2,3-b]pyridin-3-yl)methylidene]-3-oxo-2,3-dihydro-1-benzofuran-5-yl}-3-pyridin-3-ylurea], the pIC50 on PI3Kα is 6.49; at PI3Kγ, 6.13; at mTOR, 7.19.
For the compound `CCN(CCO)C(=O)c1ccc(-c2ccnc3c2c(/C=C2\Oc4cccc(O)c4C2=O)cn3C)cc1` [Compound 243, N-ethyl-N-(2-hydroxyethyl)-4-{3-[(Z)-(4-hydroxy-3-oxo-1-benzofuran-2(3H)-ylidene)methyl]-1-methyl-1H-pyrrolo[2,3-b]pyridin-4-yl}benzamide], the negative logarithm of the IC50 (pIC50) on PI3Kα is 6.78; on PI3Kγ, 6.66; on mTOR it was 7.04.
In the case of `CCN(CC)C(=O)C1CCN(c2ccnc3c2c(/C=C2\Oc4ccc(NC(=O)Nc5cccnc5)cc4C2=O)cn3C)CC1` [Compound 244, N,N-diethyl-1-{1-methyl-3-[(Z)-{3-oxo-5-[(pyridin-3-ylcarbamoyl)amino]-1-benzofuran-2(3H)-ylidene}methyl]-1H-pyrrolo[2,3-b]pyridin-4-yl}piperidine-4-carboxamide], the negative logarithm of the IC50 (pIC50) on PI3Kα was 6.51; on PI3Kγ it was 5.47; at mTOR, 6.94.
With `Cn1cc(/C=C2\Oc3cccc(O)c3C2=O)c2c(-c3ccc(C(=O)N4CCC(O)C4)cc3)ccnc21` (stereo not drawn) [Compound 245, (2Z)-4-hydroxy-2-[(4-{4-[(3-hydroxypyrrolidin-1-yl)carbonyl]phenyl}-1-methyl-1H-pyrrolo[2,3-b]pyridin-3-yl)methylene]-1-benzofuran-3(2H)-one], the pIC50 was 7.54 at PI3Kα, 7.27 on PI3Kγ and 8.85 on mTOR.
For `COCCN(C)C(=O)c1ccc(-c2ccnc3c2c(/C=C2\Oc4ccc(NC(=O)Nc5cccnc5)cc4C2=O)cn3C)cc1` [Compound 247, N-(2-methoxyethyl)-N-methyl-4-{1-methyl-3-[(Z)-{3-oxo-5-[(pyridin-3-ylcarbamoyl)amino]-1-benzofuran-2(3H)-ylidene}methyl]-1H-pyrrolo[2,3-b]pyridin-4-yl}benzamide], the negative-log IC50 (pIC50) on PI3Kα is 5.48; at PI3Kγ it was 6.32; at mTOR it was 7.52.
For the compound `CONC(=O)c1ccc(-c2ccnc3c2c(/C=C2\Oc4ccc(NC(=O)Nc5cccnc5)cc4C2=O)cn3C)cc1` [Compound 248, N-methoxy-4-{1-methyl-3-[(Z)-{3-oxo-5-[(pyridin-3-ylcarbamoyl)amino]-1-benzofuran-2(3H)-ylidene}methyl]-1H-pyrrolo[2,3-b]pyridin-4-yl}benzamide], the pIC50 was 6.01 at PI3Kα, 6.32 on PI3Kγ and 5.78 at mTOR.
For `COC1CCN(C(=O)c2ccc(-c3ccnc4c3c(/C=C3\Oc5cccc(O)c5C3=O)cn4C)cc2)C1` (stereo not drawn) [Compound 249, (2Z)-4-hydroxy-2-[(4-{4-[(3-methoxypyrrolidin-1-yl)carbonyl]phenyl}-1-methyl-1H-pyrrolo[2,3-b]pyridin-3-yl)methylene]-1-benzofuran-3(2H)-one], the figures for the pIC50 on PI3Kα, at PI3Kγ and on mTOR were 7.70, 7.59 and 9.22, respectively.
`CN1CCN(C(=O)C2CCN(c3ccnc4c3c(/C=C3\Oc5ccc(NC(=O)Nc6cccnc6)cc5C3=O)cn4C)CC2)CC1` [Compound 252, 1-{(2Z)-2-[(1-methyl-4-{4-[(4-methylpiperazin-1-yl)carbonyl]piperidin-1-yl}-1H-pyrrolo[2,3-b]pyridin-3-yl)methylidene]-3-oxo-2,3-dihydro-1-benzofuran-5-yl}-3-pyridin-3-ylurea]: the pIC50 at PI3Kα was 5.34; at PI3Kγ, 5.90; at mTOR, 8.15.
On to `Cn1cc(/C=C2\Oc3ccc(NC(=O)Nc4cccnc4)cc3C2=O)c2c(N3CCC(C(=O)N4CCCC4)CC3)ccnc21` [Compound 253, 1-[(2Z)-2-({1-methyl-4-[4-(pyrrolidin-1-ylcarbonyl)piperidin-1-yl]-1H-pyrrolo[2,3-b]pyridin-3-yl}methylene)-3-oxo-2,3-dihydro-1-benzofuran-5-yl]-3-pyridin-3-ylurea], for which the pIC50 at PI3Kα was 6.04; on PI3Kγ it was 6.18; at mTOR, 8.09.

In general, pIC50 refers to the negative decadic logarithm of the IC50, by convention in mol/L.
